Test results reported in ChEMBL document CHEMBL1201862, “PubChem BioAssay data set” (2004).
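Where inhibition never reached the appropriate level, the endpoint shown equals the highest concentration tested. Otherwise, values were interpolated linearly from a five-concentration, 48-hour dose response in 96-well plates. The concentration for 50% growth inhibition is given as GI50.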 Active and inactive are the calls of the source. No stated cut-off is given here; in the data, active = GI50 up to about 1.1 µM and inactive = higher.

Legend:
Assay in all cases: NCI anticancer screen, dose series, 48 h
786-0 = tested on: 786-0
A498 = tested on: A498
BT-549 = tested on: BT-549
COLO 205 = tested on: COLO 205
DU-145 = tested on: DU-145
HCT-116 = tested on: HCT-116
HCT-15 = tested on: HCT-15
HOP-62 = tested on: HOP-62
HT-29 = tested on: HT-29
Malme-3M = tested on: Malme-3M
NCI-H522 = tested on: NCI-H522
NCI/ADR-RES = tested on: NCI/ADR-RES
OVCAR-4 = tested on: OVCAR-4
OVCAR-5 = tested on: OVCAR-5
RPMI-8226 = tested on: RPMI-8226
RXF 393 = tested on: RXF 393
SF-539 = tested on: SF-539
SK-MEL-2 = tested on: SK-MEL-2
SK-MEL-5 = tested on: SK-MEL-5
SW-620 = tested on: SW-620

| Compound | GI50 (786-0) | GI50 (A498) | GI50 (BT-549) | GI50 (COLO 205) | GI50 (DU-145) | GI50 (HCT-116) | GI50 (HCT-15) | GI50 (HOP-62) | GI50 (HT-29) | GI50 (Malme-3M) | GI50 (NCI-H522) | GI50 (NCI/ADR-RES) | GI50 (OVCAR-4) | GI50 (OVCAR-5) | GI50 (RPMI-8226) | GI50 (RXF 393) | GI50 (SF-539) | GI50 (SK-MEL-2) | GI50 (SK-MEL-5) | GI50 (SW-620) |
| --- | --- | --- | --- | --- | --- | --- | --- | --- | --- | --- | --- | --- | --- | --- | --- | --- | --- | --- | --- | --- |
| O=C(O)c1c(-c2nccc3ccccc23)[nH]c(-c2ccccc2)c1S(=O)(=O)O | > 100 µM (inactive) | > 100 µM (inactive) | > 100 µM (inactive) | > 100 µM (inactive) | > 100 µM (inactive) | > 100 µM (inactive) | > 100 µM | > 100 µM (inactive) | > 100 µM (inactive) | > 100 µM (inactive) | > 100 µM (inactive) | > 100 µM (inactive) | > 100 µM (inactive) | > 100 µM (inactive) | > 100 µM (inactive) | > 100 µM (inactive) | > 100 µM (inactive) | > 100 µM (inactive) | > 100 µM (inactive) | > 100 µM (inactive) |
| CCOC(=O)C1=C(C)NC(C)=C(C(=O)OCC)C1c1ccc(Cl)cc1 | 13 µM (inactive) | 16.4 µM (inactive) | 17.1 µM (inactive) | 16.3 µM (inactive) | 17.3 µM (inactive) | 9.14 µM (inactive) | 16.6 µM | 14.8 µM (inactive) | 10.9 µM (inactive) | 18.1 µM (inactive) | 16 µM (inactive) | 17.7 µM (inactive) | 12.5 µM (inactive) | 13.4 µM (inactive) | 9.48 µM (inactive) | 14.1 µM (inactive) | 18.8 µM (inactive) | 18.7 µM (inactive) | 13.7 µM (inactive) | 16.3 µM (inactive) |
| CCOC(=O)CCC(NC(=O)c1ccc(OCc2ccc3nc(-c4ccccc4)c(Cl)nc3c2)cc1)C(=O)OCC (stereo not given) | 16.6 µM (inactive) | 36.1 µM (inactive) | 22.3 µM (inactive) | > 100 µM (inactive) | > 31.6 µM (inactive) | > 31.6 µM (inactive) | > 31.6 µM | > 31.6 µM (inactive) | > 31.6 µM (inactive) | > 100 µM (inactive) | 17.4 µM (inactive) | 16.7 µM (inactive) | 16.4 µM (inactive) | > 31.6 µM (inactive) | 18.9 µM (inactive) | 2.08 µM (inactive) | 15.8 µM (inactive) | 12.4 µM (inactive) | > 31.6 µM (inactive) | > 31.6 µM (inactive) |
| CSc1cnc2ccccc2c1SC1CN(Cc2ccccc2)c2ccccc2C1=O (stereo not given) | > 100 µM (inactive) | > 100 µM (inactive) | > 100 µM (inactive) | > 100 µM (inactive) | > 100 µM (inactive) | > 100 µM (inactive) | > 100 µM | 32.1 µM (inactive) | 47.9 µM (inactive) | > 100 µM (inactive) | > 100 µM (inactive) | > 100 µM (inactive) | > 100 µM (inactive) | > 100 µM (inactive) | > 100 µM (inactive) | > 100 µM (inactive) | > 100 µM (inactive) | > 100 µM (inactive) | > 100 µM (inactive) | > 100 µM (inactive) |
| CC[N+]1(C)CCC(O)(c2ccc(Cl)c(Cl)c2)C(C(=O)c2ccc(Cl)c(Cl)c2)C1 (stereo not given) | > 10 µM (inactive) | > 10 µM (inactive) | > 10 µM (inactive) | > 10 µM (inactive) | > 10 µM (inactive) | > 10 µM (inactive) | > 10 µM | > 10 µM (inactive) | > 10 µM (inactive) | > 10 µM (inactive) | 3.08 µM (inactive) | > 10 µM (inactive) | > 10 µM (inactive) | > 10 µM (inactive) | > 10 µM (inactive) | > 10 µM (inactive) | > 10 µM (inactive) | > 10 µM (inactive) | > 10 µM (inactive) | > 10 µM (inactive) |
| CCCN(CCCC(NC(C)=O)C(=O)NCc1ccccc1)C(=O)N(CCCl)N=O (stereo not given) | 0.638 µM (active) | 13.3 µM (inactive) | 19.2 µM (inactive) | 24.4 µM (inactive) | > 100 µM (inactive) | 22.6 µM (inactive) | 15.5 µM | 2.73 µM (inactive) | 30.5 µM (inactive) | 22.4 µM (inactive) | 20.7 µM (inactive) | > 100 µM (inactive) | 37.9 µM (inactive) | 34.4 µM (inactive) | 28.2 µM (inactive) | 17.8 µM (inactive) | 0.977 µM (active) | 26.9 µM (inactive) | 21.2 µM (inactive) | 7.4 µM (inactive) |
| CN(/N=C\c1ccc2ccccc2c1)C1=NCCN1 | 15.6 µM (inactive) | 12.1 µM (inactive) | 12.1 µM (inactive) | 15.3 µM (inactive) | 25.6 µM (inactive) | 15.8 µM (inactive) | 25.2 µM | 18.5 µM (inactive) | 13.3 µM (inactive) | 15.6 µM (inactive) | 15.7 µM (inactive) | 20.6 µM (inactive) | 20.8 µM (inactive) | 34.8 µM (inactive) | 17.3 µM (inactive) | 8.63 µM (inactive) | 17.7 µM (inactive) | 15.2 µM (inactive) | 14.3 µM (inactive) | 19.1 µM (inactive) |
| CCCCCCN(CCCCCC)C(=S)N/N=C(\C)c1ccccn1 | 0.971 µM (active) | 1.86 µM (inactive) | 1.68 µM (inactive) | 0.321 µM (active) | 1.28 µM (inactive) | 1.09 µM (active) | 0.581 µM | 1.21 µM (inactive) | 1.51 µM (inactive) | 1.34 µM (inactive) | 0.527 µM (active) | 1.37 µM (inactive) | 0.457 µM (active) | 1.63 µM (inactive) | 0.117 µM (active) | 0.973 µM (active) | 1.09 µM (active) | 1.06 µM (active) | 1.03 µM (active) | 0.718 µM (active) |
| O=C1c2cccc3cccc(c23)C(=O)N1CCCNCCCNCCCCNCCCNCCCN1C(=O)c2cccc3cccc(c23)C1=O | 1.07 µM (active) | 6.38 µM (inactive) | 3.74 µM (inactive) | 1.14 µM (inactive) | 3.66 µM (inactive) | 1.67 µM (inactive) | 12.8 µM | 3.79 µM (inactive) | 1.39 µM (inactive) | 2.6 µM (inactive) | 0.789 µM (active) | 14.7 µM (inactive) | 2.83 µM (inactive) | 6.14 µM (inactive) | 1.33 µM (inactive) | 3.34 µM (inactive) | 3.52 µM (inactive) | 4.01 µM (inactive) | 5.93 µM (inactive) | 2.03 µM (inactive) |
| CNC(=O)N(CCC#N)CCCN(C(=O)N(C)C)c1ccccc1 | > 100 µM (inactive) | > 100 µM (inactive) | > 100 µM (inactive) | > 100 µM (inactive) | > 100 µM (inactive) | > 100 µM (inactive) | > 100 µM | > 100 µM (inactive) | > 100 µM (inactive) | > 100 µM (inactive) | > 100 µM (inactive) | > 100 µM (inactive) | > 100 µM (inactive) | > 100 µM (inactive) | > 100 µM (inactive) | > 100 µM (inactive) | > 100 µM (inactive) | > 100 µM (inactive) | > 100 µM (inactive) | > 100 µM (inactive) |
| COc1ccc(C2c3c(-c4ccccc4)nn(-c4ccccc4)c3Oc3ncn(N)c(=N)c32)cc1OC (stereo not given) | 1.67 µM (inactive) | 7.16 µM (inactive) | 4.74 µM (inactive) | 2.23 µM (inactive) | 2.89 µM (inactive) | 1.67 µM (inactive) | 1.84 µM | 1.77 µM (inactive) | 1.93 µM (inactive) | 1.6 µM (inactive) | 2.21 µM (inactive) | 2.21 µM (inactive) | 2.45 µM (inactive) | 3.9 µM (inactive) | 2.73 µM (inactive) | 1.84 µM (inactive) | 1.69 µM (inactive) | 1.83 µM (inactive) | 1.94 µM (inactive) | 2.9 µM (inactive) |
| COc1ccc(/C=C/c2cc(=O)cc(/C=C/c3ccc(OC)c(O)c3)o2)cc1O | 3.06 µM (inactive) | 3.53 µM (inactive) | 2.65 µM (inactive) | 11.2 µM (inactive) | 2.92 µM (inactive) | 2.43 µM (inactive) | 2.29 µM | 3.41 µM (inactive) | 1.98 µM (inactive) | 2.16 µM (inactive) | 2.24 µM (inactive) | 2.89 µM (inactive) | 2.81 µM (inactive) | 9.4 µM (inactive) | 0.317 µM (active) | 1.11 µM (active) | 1.98 µM (inactive) | 2.69 µM (inactive) | 1.88 µM (inactive) | 2.71 µM (inactive) |
| CN(CCC(=O)O)C1=Nc2ccc(Cl)cc2C(c2ccccc2)=[N+]([O-])C1 | > 100 µM (inactive) | > 100 µM (inactive) | > 100 µM (inactive) | > 100 µM (inactive) | > 100 µM (inactive) | > 100 µM (inactive) | > 100 µM | > 100 µM (inactive) | > 100 µM (inactive) | > 100 µM (inactive) | > 100 µM (inactive) | > 100 µM (inactive) | 72.1 µM (inactive) | > 100 µM (inactive) | > 100 µM (inactive) | > 100 µM (inactive) | > 100 µM (inactive) | > 100 µM (inactive) | > 100 µM (inactive) | > 100 µM (inactive) |
| CCC1(O)C(=O)OCc2c1cc1n(c2=O)Cc2cc3ccccc3nc2-1 (stereo not given) | 0.0279 µM (active) | 0.94 µM (active) | 0.211 µM (active) | 0.101 µM (active) | 0.018 µM (active) | 0.048 µM (active) | 0.239 µM | < 0.0149 µM (active) | 0.0653 µM (active) | 0.431 µM (active) | 0.0471 µM (active) | 0.0444 µM (active) | 0.504 µM (active) | 0.347 µM (active) | 0.048 µM (active) | 0.073 µM (active) | 0.0157 µM (active) | 0.575 µM (active) | 0.0473 µM (active) | 0.167 µM (active) |
